Series [1] concerns Plasmodium falciparum. Kind of series: NOVARTIS: Inhibition of Plasmodium falciparum 3D7 (drug-susceptible) proliferation in erythrocyte-based infection assay. In kind it is functional, organism-based. To be noted: Plasmodium falciparum, 3D7.
Series [2] relates to Plasmodium falciparum. Kind of series: NOVARTIS: Inhibition of Plasmodium falciparum W2 (drug-resistant) proliferation in erythrocyte-based infection assay. In kind it is functional, organism-based. The conditions noted are these: Plasmodium falciparum, W2; read-out: EC50.
A short description of series [3]: NOVARTIS: Cytotoxicity against human hepatocellular carcinoma cell line (Huh7). In kind it is toxicity, cell-based, Huh-7. The conditions noted are these: Huh7 cells (hepatocellular carcinoma cell line).

From ChEMBL document CHEMBL1156829 (Proc Natl Acad Sci U S A, 2008) come the findings set out here.

For `Clc1cccc(Cl)c1C[n+]1ccc2ccccc2c1`, the concentration for a half-maximal effect (EC50) in series [1] was determined as 1890 nM; in series [2] it was 867 nM. This compound displayed a CC50 in series [3] above 100000 nM.

For `COc1cc(C(=O)NCCc2cc3ccccc3[nH]2)ccc1OC1CCN(CC(c2ccccc2)c2ccccc2)CC1`, the 50% effective concentration (EC50) in series [1] worked out at 803 nM; in series [2], 94.4 nM. This compound also displayed a 50% cytotoxic concentration (CC50) in series [3] above 10900 nM.

On to `Cc1ccc2[nH]c3c(NCCN(C)C)ncnc3c2c1`, for which the values for the EC50 in series [1] and in series [2] were 168 nM and 254 nM, respectively. Besides, in series [3], it took 29600 nM to reach half-maximal cytotoxicity (CC50).

For the compound `CCN(CC)CCNc1nc(C=Cc2ccc(Cl)cc2)nc2cc3ccccc3cc12`, the EC50 worked out at 128 nM in series [1] and 193 nM in series [2]. In series [3], this compound had a cytotoxic concentration (CC50) of 22500 nM.

Consider `COCCOC(=O)C1=C(C)NC2=C(C(=O)CCC2)C1c1ccc(OC)c(OC)c1OC` (stereo not drawn), for which the half-maximal effective concentration (EC50) in series [1] was above 6970 nM; in series [2], 870 nM. The half-maximal cytotoxic concentration (CC50) in series [3] is above 100000 nM.

Consider `O=C(Nc1ccccc1)C(=Cc1ccncc1)NC(=O)c1ccccc1`, for which the concentration for a half-maximal effect (EC50) in series [1] is above 2700 nM; in series [2], 870 nM. The same compound gave a half-maximal cytotoxic concentration (CC50) in series [3] above 100000 nM.

As to `O=C(NCCCN1CCCCC1)c1ccc2c(c1)sc1nc(-c3ccc(F)cc3)cn12`, the figures for the EC50 in series [1] and in series [2] were 694 nM and 870 nM, respectively. Moreover, the half-maximal cytotoxic concentration (CC50) in series [3] is above 100000 nM.

As for `N#Cc1ccc2c(c1)nc1c3ccc4c5c(ccc(c(=O)n21)c53)C(=O)NC4=O`, the concentration giving a half-maximal response (EC50) is 3940 nM in series [1] and 867 nM in series [2]. This compound also displayed a CC50 in series [3] above 100000 nM.

As to `COc1ccc(-c2cc(C(F)(F)F)n3nc(C(=O)NC4CCCCC4)c(Cl)c3n2)cc1OC`, the concentration giving a half-maximal response (EC50) in series [1] was above 441 nM; in series [2] it was 34.8 nM. The CC50 in series [3] is above 4020 nM.

Consider `CC(=O)Nc1ccc(N2C(=O)CSC2c2ccc(Br)cc2)cc1` (stereo not drawn), for which the concentration giving a half-maximal response (EC50) in series [1] turned out to be 2330 nM; in series [2] it was 865 nM. The CC50 in series [3] was above 100000 nM.

For the compound `COc1ccc2ccc(OC)c(C3C(C#N)=C(N)OC4=C3C(=O)CC(C)(C)C4)c2c1` (stereo not drawn), the results for the EC50 in series [1] and in series [2] were 1450 nM and 864 nM, respectively. In series [3], this compound displayed a cytotoxic concentration (CC50) above 100000 nM.

For `CCCC(=O)N1c2ccc(OC)cc2-c2c(ssc2=S)C1(C)C`, the EC50 in series [1] turned out to be 791 nM; in series [2], 867 nM. Further, the CC50 in series [3] is above 100000 nM.

`O=C1C(Nc2ccc(F)cc2)=C(N2CCCCC2)C(=O)c2ccccc21`: the concentration for a half-maximal effect (EC50) in series [1] was determined as 335 nM; in series [2], 319 nM. The cytotoxic concentration (CC50) in series [3] is 36800 nM.

With `COc1c(C=NNc2nc(Nc3ccc([N+](=O)[O-])cc3)nc(N3CCN(C)CC3)n2)cccc1[N+](=O)[O-]`, the EC50 in series [1] worked out at 340 nM; in series [2], 493 nM. For the same compound, it took 56900 nM to reach half-maximal cytotoxicity in series [3] (CC50).

With `Cc1cccc(-n2nc(C(C)(C)C)cc2NC(=O)CN(C(=O)/C=C/c2ccccc2)C(C)C)c1C`, the EC50 in series [1] was above 1750 nM; in series [2], 85.5 nM. The compound further came in with a CC50 in series [3] above 10000 nM.

Regarding `COc1ccc(-n2nc3c(c2NC(=O)/C=C\c2cc(OC)c(OC)c(OC)c2)CSC3)cc1`, the figures for the half-maximal effective concentration (EC50) in series [1] and in series [2] were above 752 nM and 85.7 nM, respectively. This compound also displayed a CC50 in series [3] above 10000 nM.

On to `CC1=C(C(=O)Nc2ccc(C)cc2C)C(c2cc(Br)ccc2F)n2ncc(C(=O)Nc3ccc(C)cc3)c2N1` (stereo not drawn), for which the EC50 in series [1] stood at 2550 nM; in series [2], 857 nM. In series [3], the CC50 was above 100000 nM.

With `CC(=O)N(C1=C(N2CCCC2)C(=O)c2ccccc2C1=O)c1ccc(F)c(F)c1`, the EC50 worked out at 407 nM in series [1] and 174 nM in series [2]. For the same compound, in series [3], the 50% cytotoxic concentration (CC50) was 20200 nM.

On to `COc1ccc(C=NN=C2NC(=O)C(CC(=O)Nc3ccccc3)S2)cc1OC` (stereo not drawn), for which the figures for the EC50 in series [1] and in series [2] were 482 nM and 857 nM, respectively. The compound further registered a 50% cytotoxic concentration (CC50) in series [3] above 100000 nM.

Consider `Cc1cccn2c(=O)c3cc(C(=O)NCc4ccco4)c(=N)n(CCc4ccccc4)c3nc12`, for which the results for the EC50 in series [1] and in series [2] were 388 nM and 865 nM, respectively. The compound further registered a 50% cytotoxic concentration (CC50) in series [3] above 100000 nM.

Consider `CC[n+]1c(/C=C/c2ccc(OC)cc2)ccc2ccccc21`, for which the results for the concentration giving a half-maximal response (EC50) in series [1] and in series [2] were 110 nM and 85.8 nM, respectively. In series [3], the CC50 is above 10000 nM.

A word on the EC50: it is the concentration needed to bring the measured effect to its halfway point. Broadly, the CC50 is the concentration at which the toxic effect on the cells reaches its halfway point.
